From ChEMBL document CHEMBL1909046, “DrugMatrix in vitro pharmacology data”

Legend:
[1] = biological target: Cytochrome P450 2C19 (Homo sapiens, UniProt P33261); conditions: bti-tn-5b1-4; also: in other assays of this panel Not Active means under 50% inhibition at 10 µM
[2] = biological target: T1, Muscarinic acetylcholine receptor M4 (Homo sapiens, UniProt P08173); assay type: cell membranes, CHO-K1, Membrane; conditions: cho-k1; also: in other assays of this panel Not Active means under 50% inhibition at 10 µM
T1 sequence (P08173 whole entry): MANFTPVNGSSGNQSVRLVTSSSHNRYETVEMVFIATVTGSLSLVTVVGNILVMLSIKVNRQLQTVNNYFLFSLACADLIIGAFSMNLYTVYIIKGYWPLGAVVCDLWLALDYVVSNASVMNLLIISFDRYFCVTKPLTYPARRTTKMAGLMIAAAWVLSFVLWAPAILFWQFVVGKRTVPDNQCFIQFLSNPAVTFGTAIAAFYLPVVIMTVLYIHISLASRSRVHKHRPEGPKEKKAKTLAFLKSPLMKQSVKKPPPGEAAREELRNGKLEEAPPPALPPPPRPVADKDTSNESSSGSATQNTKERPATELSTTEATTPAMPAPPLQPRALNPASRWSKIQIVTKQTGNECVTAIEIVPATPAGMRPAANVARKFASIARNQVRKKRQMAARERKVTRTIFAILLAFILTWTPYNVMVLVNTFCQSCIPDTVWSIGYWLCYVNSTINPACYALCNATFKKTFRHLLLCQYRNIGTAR

[3] = biological target: T2, Alpha-1B adrenergic receptor (Rattus norvegicus, UniProt P15823); assay: DRUGMATRIX: Alpha-1B adrenergic receptor radioligand binding (ligand: prazosin); assay type: cell membranes, Wistar, Liver, Membrane; conditions: Not Active = under 50% inhibition at 10 µM
T2 sequence (P15823 whole entry): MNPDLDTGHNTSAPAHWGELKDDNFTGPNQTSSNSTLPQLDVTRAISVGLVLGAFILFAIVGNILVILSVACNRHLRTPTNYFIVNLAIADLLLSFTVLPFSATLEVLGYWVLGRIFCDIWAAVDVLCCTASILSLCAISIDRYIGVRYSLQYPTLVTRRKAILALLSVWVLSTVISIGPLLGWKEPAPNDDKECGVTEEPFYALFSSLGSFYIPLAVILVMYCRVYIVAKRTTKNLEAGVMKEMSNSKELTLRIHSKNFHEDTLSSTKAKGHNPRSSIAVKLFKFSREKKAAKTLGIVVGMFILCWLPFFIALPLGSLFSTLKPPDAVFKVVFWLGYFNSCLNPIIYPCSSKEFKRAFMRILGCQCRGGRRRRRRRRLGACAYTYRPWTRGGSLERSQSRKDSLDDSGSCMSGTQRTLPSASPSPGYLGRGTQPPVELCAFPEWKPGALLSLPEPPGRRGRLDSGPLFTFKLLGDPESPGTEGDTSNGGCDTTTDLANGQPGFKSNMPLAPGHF

[4] = biological target: T3, Endothelin-1 receptor (Homo sapiens, UniProt P25101); assay type: cell membranes, Membrane; conditions: cho-k1; also: in other assays of this panel Not Active means under 50% inhibition at 10 µM
T3 sequence (P25101 whole entry): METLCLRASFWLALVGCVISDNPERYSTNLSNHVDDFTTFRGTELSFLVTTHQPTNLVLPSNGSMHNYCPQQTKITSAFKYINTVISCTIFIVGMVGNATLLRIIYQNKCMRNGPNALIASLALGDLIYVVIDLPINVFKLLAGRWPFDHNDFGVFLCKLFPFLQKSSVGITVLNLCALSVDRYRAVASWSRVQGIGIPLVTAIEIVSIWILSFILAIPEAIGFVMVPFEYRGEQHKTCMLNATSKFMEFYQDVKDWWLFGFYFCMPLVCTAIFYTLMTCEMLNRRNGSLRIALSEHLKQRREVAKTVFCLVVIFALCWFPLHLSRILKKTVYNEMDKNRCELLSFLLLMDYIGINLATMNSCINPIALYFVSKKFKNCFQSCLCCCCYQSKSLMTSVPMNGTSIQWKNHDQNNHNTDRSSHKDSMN

[5] = biological target: T4, 3-hydroxy-3-methylglutaryl-coenzyme A reductase (Homo sapiens, UniProt P04035); design: species or system Escherichia coli;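 also: enzyme inhibition assay of HMG-CoA reductase using radiolabeled [14C]HMG-CoA as substrate; in other assays of this panel Not Active means under 50% inhibition at 10 µM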
T4 sequence (P04035 whole entry): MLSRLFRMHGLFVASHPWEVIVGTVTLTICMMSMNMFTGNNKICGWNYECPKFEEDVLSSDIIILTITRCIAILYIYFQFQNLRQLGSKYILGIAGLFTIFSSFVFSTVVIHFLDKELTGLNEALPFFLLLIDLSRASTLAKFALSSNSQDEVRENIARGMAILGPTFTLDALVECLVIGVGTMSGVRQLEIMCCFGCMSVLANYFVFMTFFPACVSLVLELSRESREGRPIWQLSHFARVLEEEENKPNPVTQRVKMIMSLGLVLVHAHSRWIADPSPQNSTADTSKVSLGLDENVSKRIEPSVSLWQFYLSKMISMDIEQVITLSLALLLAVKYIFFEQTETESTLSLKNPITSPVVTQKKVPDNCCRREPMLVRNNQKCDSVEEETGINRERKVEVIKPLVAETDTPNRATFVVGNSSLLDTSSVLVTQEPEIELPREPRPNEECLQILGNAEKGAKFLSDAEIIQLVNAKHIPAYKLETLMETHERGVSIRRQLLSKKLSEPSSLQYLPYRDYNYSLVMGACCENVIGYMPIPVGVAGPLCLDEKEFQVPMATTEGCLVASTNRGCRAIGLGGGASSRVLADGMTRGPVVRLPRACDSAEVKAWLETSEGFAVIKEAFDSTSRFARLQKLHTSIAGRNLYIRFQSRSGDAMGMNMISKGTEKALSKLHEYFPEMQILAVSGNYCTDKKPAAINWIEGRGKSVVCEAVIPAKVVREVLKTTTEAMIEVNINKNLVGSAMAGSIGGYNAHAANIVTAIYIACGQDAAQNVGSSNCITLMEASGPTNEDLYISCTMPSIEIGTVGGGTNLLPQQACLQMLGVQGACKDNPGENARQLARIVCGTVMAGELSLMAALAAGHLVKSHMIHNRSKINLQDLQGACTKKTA

[6] = biological target: Matrix metalloproteinase-9 (Homo sapiens, UniProt P14780); assay type: cell-based
[7] = DRUGMATRIX: Atrial Natriuretic Factor (ANF) radioligand binding (ligand: [125I] ANF (rat)); assay type: cell membranes, Cavia porcellus, Dunkin-Hartley, Adrenal gland, Membrane; conditions: Not Active = under 50% inhibition at 10 µM

Sequence of Cytochrome P450 2C19 (P33261 whole entry): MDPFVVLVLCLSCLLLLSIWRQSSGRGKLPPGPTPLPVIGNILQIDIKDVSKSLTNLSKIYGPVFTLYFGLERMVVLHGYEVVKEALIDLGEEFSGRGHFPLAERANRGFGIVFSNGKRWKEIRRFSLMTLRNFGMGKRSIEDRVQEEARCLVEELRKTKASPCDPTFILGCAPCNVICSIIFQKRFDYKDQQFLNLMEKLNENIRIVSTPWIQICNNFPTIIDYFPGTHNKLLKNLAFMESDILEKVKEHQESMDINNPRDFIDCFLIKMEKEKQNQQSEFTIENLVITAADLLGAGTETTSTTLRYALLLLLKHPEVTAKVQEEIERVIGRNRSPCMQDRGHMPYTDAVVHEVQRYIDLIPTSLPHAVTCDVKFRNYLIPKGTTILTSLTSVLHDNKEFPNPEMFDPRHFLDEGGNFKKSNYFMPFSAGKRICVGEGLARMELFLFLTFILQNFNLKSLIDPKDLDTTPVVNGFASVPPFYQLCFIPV
Sequence of Matrix metalloproteinase-9 (P14780 whole entry): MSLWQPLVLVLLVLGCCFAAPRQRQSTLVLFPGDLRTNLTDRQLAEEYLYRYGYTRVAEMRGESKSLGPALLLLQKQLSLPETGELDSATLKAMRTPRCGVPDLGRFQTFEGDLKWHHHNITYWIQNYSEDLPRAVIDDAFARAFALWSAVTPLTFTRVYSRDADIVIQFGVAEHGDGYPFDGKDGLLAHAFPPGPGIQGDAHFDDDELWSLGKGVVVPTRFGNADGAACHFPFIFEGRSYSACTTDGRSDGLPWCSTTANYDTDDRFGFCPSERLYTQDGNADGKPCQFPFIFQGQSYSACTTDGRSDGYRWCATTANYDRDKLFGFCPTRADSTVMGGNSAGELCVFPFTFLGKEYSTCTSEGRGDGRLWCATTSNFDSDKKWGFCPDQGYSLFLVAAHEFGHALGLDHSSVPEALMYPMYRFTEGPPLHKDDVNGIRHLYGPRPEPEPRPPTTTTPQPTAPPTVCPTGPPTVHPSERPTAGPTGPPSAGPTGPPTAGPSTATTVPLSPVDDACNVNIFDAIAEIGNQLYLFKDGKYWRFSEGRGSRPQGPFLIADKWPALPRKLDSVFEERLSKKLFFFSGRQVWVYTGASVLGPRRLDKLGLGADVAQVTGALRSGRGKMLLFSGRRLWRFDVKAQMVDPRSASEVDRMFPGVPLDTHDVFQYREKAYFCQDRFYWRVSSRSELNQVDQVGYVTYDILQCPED

C[C@@H]1[C@H](O)[C@@H](C)/C=C/C=C/C=C/C=C/C=C/C=C/C=C/[C@H](O[C@@H]2O[C@H](C)[C@@H](O)[C@H](N)[C@@H]2O)C[C@@H]2O[C@](O)(C[C@@H](O)C[C@@H](O)[C@H](O)CC[C@@H](O)C[C@@H](O)CC(=O)O[C@H]1C)C[C@H](O)[C@H]2C(=O)O [AMPHOTERICIN B]
Not Active: IC50 [1] | Ki [1] | IC50 [2] | IC50 [3] | IC50 [4] | IC50 [5] | IC50 [6] | IC50 [7] | Ki [7]

CC(C)(C#N)c1cc(Cn2cncn2)cc(C(C)(C)C#N)c1 [ANASTROZOLE]
Not Active: IC50 [1] | Ki [1] | IC50 [2] | IC50 [3] | IC50 [4] | IC50 [5] | IC50 [6] | IC50 [7] | Ki [7]

C[C@]12CC[C@@H](O)C[C@@H]1CC[C@@H]1[C@@H]2CC[C@]2(C)C(=O)CC[C@@H]12 [ANDROSTERONE]
Not Active: IC50 [1] | Ki [1] | IC50 [2] | IC50 [3] | IC50 [4] | IC50 [5] | Ki [6] | IC50 [7] | Ki [7]

NCC(CC(=O)O)c1ccc(Cl)cc1 (stereo not drawn) [BACLOFEN]
Not Active: IC50 [1] | Ki [1] | IC50 [2] | IC50 [3] | IC50 [4] | IC50 [5] | IC50 [6] | IC50 [7] | Ki [7]

O=C(O)c1ccccc1 [BENZOIC ACID]
Not Active: IC50 [1] | Ki [1] | IC50 [2] | IC50 [3] | IC50 [4] | IC50 [5] | IC50 [6] | IC50 [7] | Ki [7]

c1ccc2sc(SSc3nc4ccccc4s3)nc2c1 [BENZOTHIAZYL DISULFIDE]
Not Active: IC50 [1] | Ki [1] | IC50 [2] | IC50 [3] | IC50 [4] | IC50 [5] | IC50 [6] | IC50 [7] | Ki [7]

OC[C@H]1O[C@@H]2O[C@H]3[C@H](O)[C@@H](O)[C@@H](O[C@H]4[C@H](O)[C@@H](O)[C@@H](O[C@H]5[C@H](O)[C@@H](O)[C@@H](O[C@H]6[C@H](O)[C@@H](O)[C@@H](O[C@H]7[C@H](O)[C@@H](O)[C@@H](O[C@H]8[C@H](O)[C@@H](O)[C@@H](O[C@H]1[C@H](O)[C@H]2O)O[C@@H]8CO)O[C@@H]7CO)O[C@@H]6CO)O[C@@H]5CO)O[C@@H]4CO)O[C@@H]3CO [BETADEX]
Not Active: IC50 [1] | Ki [1] | IC50 [2] | IC50 [3] | IC50 [4] | IC50 [5] | IC50 [6] | IC50 [7] | Ki [7]

CC(C)(c1ccc(O)cc1)c1ccc(O)cc1 [BISPHENOL A]
Not Active: IC50 [1] | Ki [1] | IC50 [2] | IC50 [3] | IC50 [4] | IC50 [5] | IC50 [6] | IC50 [7] | Ki [7]

Cc1c(N)nc([C@H](CC(N)=O)NC[C@H](N)C(N)=O)nc1C(=O)N[C@H](C(=O)N[C@H](C)[C@@H](O)[C@H](C)C(=O)N[C@H](C(=O)NCCc1nc(-c2nc(C(=O)NCCC[S+](C)C)cs2)cs1)[C@@H](C)O)[C@@H](O[C@@H]1O[C@@H](CO)[C@@H](O)[C@H](O)[C@@H]1O[C@H]1O[C@H](CO)[C@@H](O)[C@H](OC(N)=O)[C@@H]1O)c1c[nH]cn1.[Br-] [BLEOMYCIN A2]
Not Active: IC50 [1] | Ki [1] | IC50 [2] | IC50 [3] | IC50 [4] | IC50 [5] | IC50 [6] | IC50 [7] | Ki [7]

CN(Cc1cc(Br)cc(Br)c1N)C1CCCCC1 [BROMHEXINE]
Not Active: IC50 [1] | Ki [1] | IC50 [2] | IC50 [3] | IC50 [4] | IC50 [5] | IC50 [6] | IC50 [7] | Ki [7]

CC(N)Cc1c[nH]c2ccc(OCc3cccs3)cc12 (stereo not drawn) [BW-723C86]
Not Active: IC50 [1] | Ki [1] | IC50 [2] | IC50 [3] | IC50 [4] | IC50 [5] | IC50 [6] | IC50 [7] | Ki [7]

CC12CCC(CC1=O)C2(C)C (stereo not drawn) [CAMPHOR]
Not Active: IC50 [1] | Ki [1] | IC50 [2] | IC50 [3] | IC50 [4] | IC50 [5] | IC50 [6] | IC50 [7] | Ki [7]
